Consider 23 compounds from ChEMBL document CHEMBL3585290, “Synthesis and biological evaluation of novel bivalent -carbolines as potential antitumor agents” (Medchemcomm, 2014).

As a reminder, the IC50 is the concentration at which inhibition is half-maximal. Low values mean greater potency in that assay, high ones weaker potency in that assay.

Common to all, as to assay type: functional, cell-based
Assay [1] can be described thus: Cytotoxicity against human BGC823 cells after 48 hrs by MTT assay. Conditions: BGC-823, 48 h. (Tetrazolium dyes change colour on reduction, which living cells bring about.)
The test system of the next assay is SK-OV-3. In words: Cytotoxicity against human SKOV3 cells after 48 hrs by MTT assay. The settings on record: SK-OV-3, 48 h.
The next assay has as its system KB. In words: Cytotoxicity against human KB cells after 48 hrs by MTT assay.
The next assay has as its system A-375. In words: Cytotoxicity against human A375 cells after 48 hrs by MTT assay. Conditions: A-375, 48 h.
The subject of a further assay is 769-P. Kind of assay: Cytotoxicity against human 769-P cells after 48 hrs by MTT assay.

`CCCCn1c2ccccc2c2cc(C(=O)OCCCCCCOC(=O)c3cc4c5ccccc5n(CCCC)c4c(C)n3)nc(C)c21`: the IC50 was more than 200 µM in assay [1]; more than 200 µM in the assay on SK-OV-3; 54.6 µM with KB; more than 200 µM in the assay on A-375; 60.5 µM in the assay on 769-P.
Turning to `CCn1c2ccccc2c2cc(C(=O)OCCCCCCOC(=O)c3cc4c5ccccc5n(CC)c4c(C)n3)nc(C)c21`, the IC50 is more than 200 µM in assay [1]; more than 200 µM with SK-OV-3; 16.5 µM in the assay with KB; 32.9 µM in the assay on A-375; 43.1 µM with 769-P.
As to `CCn1c2ccccc2c2cc(C(=O)OCCCCCCCCCOC(=O)c3cc4c5ccccc5n(CC)c4c(C)n3)nc(C)c21`, the IC50 in assay [1] was more than 200 µM; with SK-OV-3, more than 200 µM; in the assay on KB, 56.9 µM; with A-375 it was more than 200 µM; in the assay on 769-P it was 10.3 µM.
With `CCCCn1c2ccccc2c2cc(C(=O)OCCCCCOC(=O)c3cc4c5ccccc5n(CCCC)c4cn3)ncc21`, the IC50 in assay [1] is more than 200 µM; in the assay on SK-OV-3, more than 200 µM; in the assay with KB, 53.9 µM; in the assay on A-375, more than 200 µM; with 769-P it was 32.9 µM.
For the compound `O=C(OCCCCOC(=O)c1cc2c3ccccc3n(Cc3ccccc3)c2cn1)c1cc2c3ccccc3n(Cc3ccccc3)c2cn1`, the half-maximal inhibitory concentration (IC50) in assay [1] was 43.6 µM; in the assay with SK-OV-3, more than 200 µM; in the assay on KB it was more than 200 µM; with A-375, 7.9 µM; with 769-P, 45.4 µM.
As for `CCCCn1c2ccccc2c2cc(C(=O)OCCCCCCCOC(=O)c3cc4c5ccccc5n(CCCC)c4c(C)n3)nc(C)c21`, the IC50 was more than 200 µM in assay [1]; 71.5 µM in the assay on SK-OV-3; more than 200 µM in the assay with KB; more than 200 µM in the assay on A-375; 95.9 µM in the assay on 769-P.
`Cc1nc(C(=O)OCCCCCCOC(=O)c2cc3c4ccccc4n(C)c3c(C)n2)cc2c3ccccc3n(C)c12`: the IC50 in assay [1] is more than 200 µM; in the assay with SK-OV-3, more than 200 µM; in the assay with KB, 165 µM; in the assay with A-375, 82.6 µM; in the assay on 769-P, 28.3 µM.
As for `CCCCn1c2ccccc2c2cc(C(=O)OCCCCCCCCOC(=O)c3cc4c5ccccc5n(CCCC)c4cn3)ncc21`, the IC50 was determined as 68.9 µM in assay [1]; 124 µM in the assay with SK-OV-3; 19.8 µM with KB; 146 µM with A-375; 210 µM with 769-P.
Turning to `CCCCn1c2ccccc2c2cc(C(=O)OCCCCOC(=O)c3cc4c5ccccc5n(CCCC)c4cn3)ncc21`, the IC50 in assay [1] is 116 µM; in the assay on SK-OV-3, 123 µM; in the assay on KB it was 89 µM; with A-375, more than 200 µM; in the assay with 769-P it was 42.6 µM.
For the compound `O=C(OCCCCCCOC(=O)c1cc2c3ccccc3n(Cc3ccccc3)c2cn1)c1cc2c3ccccc3n(Cc3ccccc3)c2cn1`, the IC50 in assay [1] is 164 µM; in the assay on SK-OV-3, 27.8 µM; in the assay on KB it was 15.7 µM; in the assay on A-375, more than 200 µM; in the assay with 769-P, 46.8 µM.
Turning to `CCCCn1c2ccccc2c2cc(C(=O)OCCCCCCCCCCOC(=O)c3cc4c5ccccc5n(CCCC)c4c(C)n3)nc(C)c21`, the IC50 is more than 200 µM in assay [1]; more than 200 µM with SK-OV-3; more than 200 µM with KB; 42 µM in the assay with A-375; 114 µM with 769-P.
Consider `CCn1c2ccccc2c2cc(C(=O)OCCCCCCOC(=O)c3cc4c5ccccc5n(CC)c4c(-c4cc(OC)c(OC)c(OC)c4)n3)nc(-c3cc(OC)c(OC)c(OC)c3)c21`, for which the IC50 in assay [1] turned out to be 159 µM; with SK-OV-3, 47.4 µM; in the assay on KB it was 20.7 µM; in the assay on A-375 it was 40.4 µM; in the assay with 769-P it was 10.9 µM.
`CCn1c2ccccc2c2cc(C(=O)OCCCCCCOC(=O)c3cc4c5ccccc5n(CC)c4c(-c4ccc(OC)cc4)n3)nc(-c3ccc(OC)cc3)c21`: the IC50 in assay [1] is more than 200 µM; in the assay with SK-OV-3, more than 200 µM; in the assay with KB, 89.2 µM; with A-375 it was more than 200 µM; with 769-P, 65.9 µM.
On to `Cc1nc(C(=O)OCCCCCOC(=O)c2cc3c4ccccc4n(Cc4ccccc4)c3c(C)n2)cc2c3ccccc3n(Cc3ccccc3)c12`, for which the IC50 is more than 200 µM in assay [1]; more than 200 µM with SK-OV-3; 42.4 µM in the assay on KB; 125 µM with A-375; 72.4 µM in the assay on 769-P.
Consider `O=C(OCCCCCCCCCOC(=O)c1cc2c3ccccc3n(Cc3cccc(Cl)c3)c2cn1)c1cc2c3ccccc3n(Cc3cccc(Cl)c3)c2cn1`, for which the IC50 in assay [1] is more than 200 µM; in the assay with SK-OV-3, more than 200 µM; in the assay with KB, 71.2 µM; with A-375, more than 200 µM; in the assay with 769-P, 145 µM.
On to `Cc1nc(C(=O)OCCCCCCCCCCOC(=O)c2cc3c4ccccc4n(C)c3c(C)n2)cc2c3ccccc3n(C)c12`, for which the concentration for half-maximal inhibition (IC50) in assay [1] is more than 200 µM; in the assay on SK-OV-3 it was more than 200 µM; with KB, 198 µM; in the assay with A-375 it was 125 µM; in the assay with 769-P it was 42.9 µM.
Consider `CCCCn1c2ccccc2c2cc(C(=O)OCCCCCCCCCCOC(=O)c3cc4c5ccccc5n(CCCC)c4cn3)ncc21`, for which the IC50 in assay [1] was 168 µM; in the assay with SK-OV-3 it was more than 200 µM; with KB, 45.2 µM; in the assay with A-375, more than 200 µM; in the assay with 769-P it was 89.2 µM.
With `O=C(OCCCCCCCCOC(=O)c1cc2c3ccccc3n(Cc3ccccc3)c2cn1)c1cc2c3ccccc3n(Cc3ccccc3)c2cn1`, the IC50 in assay [1] is more than 200 µM; with SK-OV-3 it was more than 200 µM; in the assay with KB, 162 µM; in the assay on A-375, more than 200 µM; in the assay on 769-P it was 68.6 µM.
In the case of `O=C(OCCCCCCCOC(=O)c1cc2c3ccccc3n(CCCc3ccccc3)c2cn1)c1cc2c3ccccc3n(CCCc3ccccc3)c2cn1`, the IC50 is more than 200 µM in assay [1]; more than 200 µM in the assay with SK-OV-3; 78.9 µM in the assay on KB; 143 µM with A-375; 43.5 µM in the assay on 769-P.
On to `CCn1c2ccccc2c2cc(C(=O)OCCCCCCCCOC(=O)c3cc4c5ccccc5n(CC)c4c(C)n3)nc(C)c21`, for which the IC50 in assay [1] is more than 200 µM; with SK-OV-3, 86.4 µM; with KB it was more than 200 µM; in the assay with A-375 it was 86.3 µM; with 769-P, 21.7 µM.
On to `Cc1nc(C(=O)OCCCCCCOC(=O)c2cc3c4ccccc4n(CCCc4ccccc4)c3c(C)n2)cc2c3ccccc3n(CCCc3ccccc3)c12`, for which the IC50 was more than 200 µM in assay [1]; 73.4 µM in the assay on SK-OV-3; more than 200 µM in the assay with KB; more than 200 µM with A-375; 21.8 µM in the assay on 769-P.
On to `Cc1nc(C(=O)OCCCCCCOC(=O)c2cc3c4ccccc4n(Cc4ccccc4)c3c(C)n2)cc2c3ccccc3n(Cc3ccccc3)c12`, for which the IC50 in assay [1] is more than 200 µM; with SK-OV-3, more than 200 µM; with KB, 112 µM; in the assay with A-375, more than 200 µM; in the assay with 769-P, 64.7 µM.
`COc1cc(-c2nc(C(=O)OCCCCCCOC(=O)c3cc4c5ccccc5n(CCCc5ccccc5)c4c(-c4cc(OC)c(OC)c(OC)c4)n3)cc3c4ccccc4n(CCCc4ccccc4)c23)cc(OC)c1OC`: the IC50 is 168 µM in assay [1]; more than 200 µM in the assay with SK-OV-3; more than 200 µM with KB; 134 µM in the assay on A-375; 118 µM with 769-P.
